{
  "source": "ChEMBL document CHEMBL4346720",
  "about": "“Review of the molecular mechanisms of Ganoderma lucidum triterpenoids: Ganoderic acids A, C2, D, F, DM, X and Y” (Eur J Med Chem, 2019)",
  "key": {"DNA topoisomerase 1": {"target": "T1, DNA topoisomerase 1 (Homo sapiens, UniProt P11387)", "T1 sequence (P11387 whole entry)": "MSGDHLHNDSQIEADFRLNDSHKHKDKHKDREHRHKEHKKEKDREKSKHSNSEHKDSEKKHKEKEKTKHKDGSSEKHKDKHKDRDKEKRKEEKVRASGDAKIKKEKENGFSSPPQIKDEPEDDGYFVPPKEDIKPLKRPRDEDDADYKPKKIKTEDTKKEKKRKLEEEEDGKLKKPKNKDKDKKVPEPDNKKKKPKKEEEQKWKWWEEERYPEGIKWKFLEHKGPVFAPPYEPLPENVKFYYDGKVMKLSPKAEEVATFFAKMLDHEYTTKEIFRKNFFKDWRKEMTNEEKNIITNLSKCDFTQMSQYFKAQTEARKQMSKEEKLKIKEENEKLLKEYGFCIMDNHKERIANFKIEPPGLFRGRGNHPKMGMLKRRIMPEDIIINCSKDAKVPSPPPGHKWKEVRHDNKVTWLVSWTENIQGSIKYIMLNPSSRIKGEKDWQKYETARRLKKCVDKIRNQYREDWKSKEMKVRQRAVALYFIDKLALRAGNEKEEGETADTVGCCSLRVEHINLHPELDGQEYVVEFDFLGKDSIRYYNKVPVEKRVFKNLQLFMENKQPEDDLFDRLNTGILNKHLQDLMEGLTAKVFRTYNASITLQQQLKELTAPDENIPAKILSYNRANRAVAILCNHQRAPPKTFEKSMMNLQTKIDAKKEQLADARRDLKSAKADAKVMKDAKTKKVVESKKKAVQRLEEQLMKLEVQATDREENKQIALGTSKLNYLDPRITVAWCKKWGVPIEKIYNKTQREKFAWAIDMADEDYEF", "test": "Inhibition of recombinant human topoisomerase-1-mediated relaxation of supercoiled pRYG DNA after 30 mins by ethidium bromide staining based assay"}, "HeLa": {"test_system": "HeLa", "test": "Induction of apoptosis in human HeLa cells", "assay_type": "functional, cell-based"}, "RAW264.7": {"test_system": "RAW264.7", "test": "Cytotoxicity against mouse RAW264.7 cells assessed as reduction in cell viability by WST-1 assay", "assay_type": "functional"}, "[1]": {"test": "Inhibition of RANKL/tumour necrosis factor alpha-induced formation of osteoclasts (unknown origin) by tartrate-resistant acid phosphatase staining based assay", "assay_type": "functional"}, "[2]": {"target": "Signal transducer and activator of transcription 3 (Homo sapiens) (UniProt P40763)", "sequence (P40763 whole entry)": "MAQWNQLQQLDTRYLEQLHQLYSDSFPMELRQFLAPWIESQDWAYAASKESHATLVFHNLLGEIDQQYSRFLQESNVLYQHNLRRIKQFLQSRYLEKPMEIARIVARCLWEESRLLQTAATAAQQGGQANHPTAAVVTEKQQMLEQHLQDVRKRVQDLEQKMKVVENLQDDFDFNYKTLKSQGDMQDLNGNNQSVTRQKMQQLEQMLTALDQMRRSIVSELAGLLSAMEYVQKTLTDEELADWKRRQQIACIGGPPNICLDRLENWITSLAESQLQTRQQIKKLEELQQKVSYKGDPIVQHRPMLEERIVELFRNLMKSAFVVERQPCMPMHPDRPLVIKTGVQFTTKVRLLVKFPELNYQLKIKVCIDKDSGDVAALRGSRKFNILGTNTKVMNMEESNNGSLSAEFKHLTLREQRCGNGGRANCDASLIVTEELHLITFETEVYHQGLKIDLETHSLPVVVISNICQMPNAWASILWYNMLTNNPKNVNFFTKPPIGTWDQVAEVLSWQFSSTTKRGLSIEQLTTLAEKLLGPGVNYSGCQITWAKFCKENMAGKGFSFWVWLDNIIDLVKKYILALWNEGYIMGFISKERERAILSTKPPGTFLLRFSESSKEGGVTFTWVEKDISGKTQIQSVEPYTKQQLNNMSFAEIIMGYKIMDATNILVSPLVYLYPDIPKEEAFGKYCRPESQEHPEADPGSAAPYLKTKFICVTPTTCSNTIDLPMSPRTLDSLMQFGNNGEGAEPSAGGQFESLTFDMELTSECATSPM", "test": "Inhibition of IL-6-stimulated STAT3 (unknown origin) phosphorylation preincubated for 4 hrs followed by IL-6 addition measured after 24 hrs by luciferase reporter gene assay"}, "HepG2": {"test_system": "HepG2", "test": "Cytotoxicity against human HepG2 cells assessed as reduction in cell viability after 24 hrs by MTT assay", "assay_type": "functional", "conditions": "HepG2, 24 h"}, "[3]": {"test": "Tmax in Sprague-Dawley rat at 300 mg/kg, po by LC-ESI-IT-TOF/MS analysis", "assay_type": "ADME, organism-based", "conditions": "in vivo"}, "Osteoclast": {"test_system": "Osteoclast", "test": "Inhibition of calcitriol-induced formation of Sprague-Dawley rat osteoclasts by […]", "assay_type": "functional"}, "[4]": {"test": "Inhibition of human T9A4 cells assessed as reduction in cholesterol synthesis after 30 mins in presence of [14C]acetate, [14C]mevanolate, 24,25-dihydro-[24,25-3H2]lanosterol, [3-3H]lathosterol by acetate incorporation assay", "assay_type": "functional"}},
  "data": [
    {"smiles": "CC(=O)O[C@H]1C[C@H]([C@H](C)CC/C=C(\\C)C(=O)O)[C@@]2(C)CC=C3C(=CC[C@H]4C(C)(C)[C@H](O)CC[C@]34C)[C@]12C", "values": [
      {"measurement": "IC50", "setting": "DNA topoisomerase 1", "value": 25, "unit": "µM"}
    ]},
    {"smiles": "C[C@H](CC(=O)C[C@H](C)C(=O)O)[C@H]1CC(=O)[C@@]2(C)C3=C(C(=O)C[C@]12C)[C@@]1(C)CCC(=O)C(C)(C)[C@@H]1C[C@@H]3O", "values": [
      {"measurement": "IC50", "setting": "HeLa", "value": 17.3, "unit": "µM"},
      {"measurement": "CC50", "setting": "RAW264.7", "value": "> 400", "unit": "µM"},
      {"measurement": "IC50", "setting": "[1]", "value": 400, "unit": "µM"}
    ]},
    {"smiles": "C[C@H](CC(=O)C[C@@H](C)[C@H]1C[C@H](O)[C@@]2(C)C3=C(C(=O)C[C@]12C)[C@@]1(C)CCC(=O)C(C)(C)[C@@H]1C[C@@H]3O)C(=O)O", "note": "[GANODERIC ACID A]", "values": [
      {"measurement": "MIC", "setting": "[2]", "value": 60, "unit": "µM"},
      {"measurement": "CC50", "setting": "HepG2", "value": 80, "unit": "µM"}
    ]},
    {"smiles": "C[C@H](CC(=O)C[C@@H](C)[C@H]1C[C@H](O)[C@@]2(C)C3=C(C(=O)C[C@]12C)[C@@]1(C)CC[C@H](O)C(C)(C)[C@@H]1C[C@@H]3O)C(=O)O", "note": "[GANODERIC ACID C2]", "values": [
      {"measurement": "Tmax", "setting": "[3]", "value": 3.9, "unit": "min"}
    ]},
    {"smiles": "C/C(=C/CC[C@@H](C)[C@H]1CC[C@@]2(C)C3=C(CC[C@]12C)[C@@]1(C)CCC(=O)C(C)(C)[C@@H]1CC3=O)C(=O)O", "note": "[GANODERIC ACID DM]", "values": [
      {"measurement": "CC50", "setting": "RAW264.7", "value": 65, "unit": "µM"},
      {"measurement": "MIC", "setting": "Osteoclast", "value": 10, "unit": "µg/mL"},
      {"measurement": "IC50", "setting": "[1]", "value": 30, "unit": "µM"}
    ]},
    {"smiles": "C/C(=C\\CC[C@@H](C)[C@H]1CC[C@@]2(C)C3=CC[C@H]4C(C)(C)[C@@H](O)CC[C@]4(C)C3=CC[C@]12C)C(=O)O", "note": "[GANODERIC ACID Y]", "values": [
      {"measurement": "IC50", "setting": "[4]", "value": 1.4, "unit": "µM"}
    ]}
  ]
}
